Results from patent US20250215039A1, “NUCLEOSIDES FOR TREATING CANCER” (PRIMEFOUR THERAPEUTICS, INC., priority 2022, published 2025).
Like-named read-outs stand apart in the source and are kept apart here.

System: cancer cell lines
Assay: Cancer cell proliferation activity (CellTiterGlo, 72 h)
Format: cell-based
Conditions: 72 h, 72 h, read-out: IC50 cell proliferation
Summary of the method: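 Cells seeded overnight at 37 °C, then dosed with compound at 0.1% final DMSO and incubated 72 h at 37 °C (5% or 10% CO2 by medium).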

IC50 (5637 (bladder)): 950 nM
IC50 (CLS439 (bladder)): 2640 nM
IC50 (HS729 (muscle)): 440 nM
IC50 (J82 (bladder)): 1810 nM
IC50 (JAR (placenta)): 1600 nM
IC50 (MT3 (breast)): 230 nM
IC50 (PANCI (pancreas)): 5060 nM
IC50 (PC3 (prostate)): 280 nM
IC50 (RD (muscle)): 960 nM
IC50 (T24 (bladder)): 560 nM
IC50 (Homo sapiens, 22Rv1, 72 h, 22RV1 (prostate)): 2890 nM
IC50 (Homo sapiens, 786-0, 72 h, 786O (kidney)): 1570 nM
IC50 (Homo sapiens, A204, 72 h, A204 (muscle)): 190 nM
IC50 (Homo sapiens, A549, 72 h, A549 (lung)): 1330 nM
IC50 (Homo sapiens, A673, 72 h, A673 (bone)): 2530 nM
IC50 (Homo sapiens, A2780, 72 h, A2780 (ovary)): 1670 nM
IC50 (Homo sapiens, A-375, 72 h, A375 (skin)): 570 nM
IC50 (Homo sapiens, A-431, 72 h, A431 (skin)): 1240 nM
IC50 (Homo sapiens, ACHN, ACHN (kidney)): 1050 nM
IC50 (Homo sapiens, ASPC1, 72 h, ASPC1 (pancreas)): 320 nM
IC50 (Homo sapiens, BT-20, 72 h, BT20 (breast)): 2120 nM
IC50 (Homo sapiens, BXPC-3, 72 h, BXPC3 (pancreas)): 430 nM
IC50 (Homo sapiens, C-33-A, C33A (endometrial)): 410 nM
IC50 (Homo sapiens, CAKI-1, 72 h, CAKI1 (kidney)): 130 nM
IC50 (Homo sapiens, COLO 205, 72 h, COLO205 (colon)): 420 nM
IC50 (Homo sapiens, COLO-678, 72 h, COLO678 (colon)): 630 nM
IC50 (Homo sapiens, Ca-Ski, CASKI (endometrial)): 990 nM
IC50 (Homo sapiens, Caco-2, 72 h, CACO2 (colon)): 3520 nM
IC50 (Homo sapiens, Calu-6, 72 h, CALU6 (lung)): 400 nM
IC50 (Homo sapiens, DLD-1, 72 h, DLD1 (colon)): 1030 nM
IC50 (Homo sapiens, DU-145, 72 h, DU145 (prostate)): 340 nM
IC50 (Homo sapiens, EFO-21, 72 h, EFO21 (ovary)): 460 nM
IC50 (Homo sapiens, EJ-28, 72 h, EJ28 (bladder)): 1060 nM
IC50 (Homo sapiens, Granta-519, 72 h, GRANTA-519 (hematological)): 680 nM
IC50 (Homo sapiens, HCT-15, 72 h, HCT15 (colon)): 2010 nM
IC50 (Homo sapiens, HCT-116, 72 h, HCT116 (colon)): 1030 nM
IC50 (Homo sapiens, HEK293, 72 h, HEK293 (kidney)): 3610 nM
IC50 (Homo sapiens, HL-60, 72 h, HL-60 (hematological)): 230 nM
IC50 (Homo sapiens, HT-29, 72 h, HT29 (colon)): 700 nM
IC50 (Homo sapiens, HT-1080, 72 h, HT1080 (connective tissue)): 2790 nM
IC50 (Homo sapiens, HeLa, HELA (endometrial)): 310 nM
IC50 (Homo sapiens, HepG2, 72 h, HEPG2 (liver)): 2750 nM
IC50 (Homo sapiens, Hs-578T, HS578T (breast)): 1640 nM
IC50 (Homo sapiens, IGROV-1, 72 h, IGROV1 (ovary)): 1280 nM
IC50 (Homo sapiens, IMR-90, 72 h, IMR90 (lung)): 540 nM
IC50 (Homo sapiens, JEG-3, 72 h, JEG3 (placenta)): 2570 nM
IC50 (Homo sapiens, JIMT-1, 72 h, JIMT1 (breast)): 180 nM
IC50 (Homo sapiens, K562, 72 h, K-562 (hematological)): 5680 nM
IC50 (Homo sapiens, Kasumi 1, 72 h, KASUMI-1 (hematological)): 60 nM
IC50 (Homo sapiens, L-363, 72 h, L-363 (hematological)): 920 nM
IC50 (Homo sapiens, LoVo, LOVO (colon)): 440 nM
IC50 (Homo sapiens, MCF7, 72 h, MCF7 (breast)): 3060 nM
IC50 (Homo sapiens, MDA-MB-231, 72 h, MDAMB231 (breast)): 160 nM
IC50 (Homo sapiens, MDA-MB-435, 72 h, MDAMB435 (skin)): 2470 nM
IC50 (Homo sapiens, MDA-MB-436, 72 h, MDAMB436 (breast)): 620 nM
IC50 (Homo sapiens, MDA-MB-468, 72 h, MDAMB468 (breast)): 1440 nM
IC50 (Homo sapiens, MG-63, 72 h, MG63 (bone)): 1630 nM
IC50 (Homo sapiens, MHH-ES-1, 72 h, MHHES1 (bone)): 460 nM
IC50 (Homo sapiens, MIA PaCa-2, 72 h, MIAPACA2 (pancreas)): 2950 nM
IC50 (Homo sapiens, MINO, MINO (hematological)): 40 nM
IC50 (Homo sapiens, MV4-11, 72 h, MV4-11 (hematological)): 270 nM
IC50 (Homo sapiens, NCI-H23, 72 h, NCI-H23 (lung)): 2040 nM
IC50 (Homo sapiens, NCI-H82, 72 h, NCIH82 (lung)): 1600 nM
IC50 (Homo sapiens, NCI-H292, 72 h, NCIH292 (lung)): 2330 nM
IC50 (Homo sapiens, NCI-H460, 72 h, NCIH460 (lung)): 1950 nM
IC50 (Homo sapiens, OVCAR-3, 72 h, OVCAR3 (ovary)): 350 nM
IC50 (Homo sapiens, OVCAR-4, 72 h, OVCAR4 (ovary)): 1860 nM
IC50 (Homo sapiens, PLC-PRF-5, 72 h, PLCPRF5 (liver)): 2840 nM
IC50 (Homo sapiens, Panc1005, 72 h, PANC1005 (pancreas)): 660 nM
IC50 (Homo sapiens, Ramos, RAMOS (hematological)): 420 nM
IC50 (Homo sapiens, SAOS-2, 72 h, SAOS2 (bone)): 110 nM
IC50 (Homo sapiens, SF-268, 72 h, SF268 (brain)): 3020 nM
IC50 (Homo sapiens, SF-295, 72 h, SF295 (brain)): 3580 nM
IC50 (Homo sapiens, SK-BR-3, 72 h, SKBR3 (breast)): 140 nM
IC50 (Homo sapiens, SK-HEP1, 72 h, SKHEP1 (liver)): 280 nM
IC50 (Homo sapiens, SK-LMS-1, 72 h, SKLMS1 (uterus)): 3020 nM
IC50 (Homo sapiens, SK-MEL-5, 72 h, SKMEL5 (skin; SKMELS [sic] in Table 9E)): 1970 nM
IC50 (Homo sapiens, SK-MEL-28, 72 h, SKMEL28 (skin)): 980 nM
IC50 (Homo sapiens, SK-N-AS, SKNAS (brain)): 2550 nM
IC50 (Homo sapiens, SK-N-SH, SKNSH (brain)): 2260 nM
IC50 (Homo sapiens, SK-OV-3, 72 h, SKOV3 (ovary)): 510 nM
IC50 (Homo sapiens, SNB-75, 72 h, SNB75 (brain)): 1470 nM
IC50 (Homo sapiens, SU-DHL10, 72 h, SU-DHL-10 (hematological)): 730 nM
IC50 (Homo sapiens, SU-DHL-6, 72 h, SU-DHL-6 (hematological)): 980 nM
IC50 (Homo sapiens, SW-620, 72 h, SW620 (colon)): 680 nM
IC50 (Homo sapiens, TE-671, 72 h, TE671 (muscle)): 780 nM
IC50 (Homo sapiens, THP-1, 72 h, THP-1 (hematological)): 130 nM
IC50 (Homo sapiens, U2OS, U20S (bone; U2OS in Table 9E)): 960 nM
IC50 (Homo sapiens, U-87 MG, U87MG (brain)): 620 nM
IC50 (Homo sapiens, UMUC3, 72 h, UMUC3 (bladder)): 970 nM
IC50 (Homo sapiens, UO-31, 72 h, UO31 (kidney)): 420 nM
IC50 (Homo sapiens, WSU-NHL, WSU-NHL (hematological)): 340 nM
IC50 (NCI-H358M, NCIH358M (lung)): 60 nM
IC50 (PBMC, PBMC (hematological)): 150 nM
IC50 (RD-ES, RDES (bone)): 820 nM
SMILES: Nc1nc(F)nc2c1ncn2[C@H]1C[C@H](O)[C@@H](CO)O1 [compound 171, (2R,3S,5R)-5-(6-amino-2-fluoro-9H-purin-9-yl)-2-(hydroxymethyl)tetrahydrofuran-3-ol]
